From patent US20110250454A1, “PREPARATION OF NEBIVOLOL” (priority 2010, published 2011)
Counter-ions that a name gives are not always drawn.

How the values were obtained:
[1] = Particle size distribution (laser diffraction, Malvern instrument); type: physicochemical; conditions: Hydrochloride; for particle size distribution D10: 10 volume percent of particles smaller than value; for particle size distribution D50: 50 volume percent of particles smaller than value; for particle size distribution D90: 90 volume percent of particles smaller than value
From the text: The D10, D50, and D90 values are useful ways for indicating particle size distributions. D90 refers to at least 90 volume percent of the particles having a size smaller than the given value. Likewise, D10 refers to 10 volume percent of the particles having a size smaller than the given value. D50 refers to 50 volume percent of the particles having a size smaller than the given value. Methods for determining D10, D50, and D90 include laser diffraction, such as using equipment from Malvern Instruments Ltd. of Malvern, Worcestershire, United Kingdom.

[2] = natural crystalline form, not micronized; cited from earlier work
[3] = natural crystalline form, not micronized; cited from earlier work; remark: listed apart in the source
[4] = Specific surface area (BET); type: physicochemical; conditions: BET stated for Example 8; Hydrochloride

OC(CNCC(O)C1CCc2cc(F)ccc2O1)C1CCc2cc(F)ccc2O1 (stereo not shown) [Example 55, Nebivolol Hydrochloride]
particle size distribution D10 [1]: 2.37 μm | particle size distribution D50 [1]: 6.29 μm | particle size distribution D90 [1]: 25.76 μm

OC(CNCC(O)C1CCc2cc(F)ccc2O1)C1CCc2cc(F)ccc2O1 (stereo not shown) [Example 53, Nebivolol Hydrochloride]
particle size distribution D10 [1]: 1.87 μm | particle size distribution D50 [1]: 4.46 μm | particle size distribution D90 [1]: 11.72 μm

OC(CNCC(O)C1CCc2cc(F)ccc2O1)C1CCc2cc(F)ccc2O1 (stereo not drawn) [nebivolol hydrochloride, (1RS,1′RS)-1,1′-[(2RS,2′SR)-bis(6-fluoro-3,4-dihydro-2H-1-benzopyran-2-yl)]-2,2′-iminodiethanol]
dissolution rate [2]: poor | bioavailability [3]: poor

OC(CNCC(O)C1CCc2cc(F)ccc2O1)C1CCc2cc(F)ccc2O1 (stereo not shown) [Example 54, Nebivolol Hydrochloride]
particle size distribution D10 [1]: 1.314 μm | particle size distribution D50 [1]: 3.363 μm | particle size distribution D90 [1]: 7.80 μm

OC(CNCC(O)C1CCc2cc(F)ccc2O1)C1CCc2cc(F)ccc2O1 (stereo not shown) [Example 60, Nebivolol Hydrochloride]
particle size distribution D10 [1]: 1.43 μm | particle size distribution D50 [1]: 3.52 μm | particle size distribution D90 [1]: 9.35 μm

OC(CNCC(O)C1CCc2cc(F)ccc2O1)C1CCc2cc(F)ccc2O1 (stereo not shown) [Example 56, Nebivolol Hydrochloride]
Specific surface area [4]: 3.68 m^2/g | particle size distribution D10 [1]: 1.23 μm | particle size distribution D50 [1]: 3.17 μm | particle size distribution D90 [1]: 10.75 μm

OC(CNCC(O)C1CCc2cc(F)ccc2O1)C1CCc2cc(F)ccc2O1 (stereo not shown) [Example 8, Nebivolol Hydrochloride]
Specific surface area [4]: 1.2580 m^2/g | particle size distribution D10 [1]: 3.94 μm | particle size distribution D50 [1]: 19.1 μm | particle size distribution D90 [1]: 48.4 μm

OC(CNCC(O)C1CCc2cc(F)ccc2O1)C1CCc2cc(F)ccc2O1 (stereo not shown) [Example 52, Nebivolol Hydrochloride]
particle size distribution D10 [1]: 1.753 μm | particle size distribution D50 [1]: 4.571 μm | particle size distribution D90 [1]: 15.180 μm
